Numbers after ± are expanded uncertainties.
How the values were obtained:
[1] = Liquid; for viscosity / speed of sound: 101 kPa; for viscosity: Capillary tube (Ostwald / Ubbelohde) method; for speed of sound: Linear variable-path acoustic interferometer; for mass density: 101.33 kPa, Pycnometric method
[2] = xn = mol fraction of the nth substance listed; conditions: 101 kPa, Liquid, x2 = 0; for viscosity: Capillary tube (Ostwald / Ubbelohde) method; for excess molar volume: Direct dilatometry; for speed of sound: Linear variable-path acoustic interferometer

Cc1ccc(C)cc1 [1,4-dimethylbenzene]
viscosity ([1]; 303.15 K): 0.566 ± 0.016 mPa·s
speed of sound ([1]; 303.15 K): 1283.7 ± 5.2 m/s
mass density ([1]; 303.15 K): 852.3 ± 2.3 kg/m3
viscosity ([1]; 308.15 K): 0.537 ± 0.015 mPa·s
speed of sound ([1]; 308.15 K): 1271 ± 5.2 m/s
mass density ([1]; 308.15 K): 847.9 ± 2.3 kg/m3
viscosity ([1]; 313.15 K): 0.513 ± 0.015 mPa·s
speed of sound ([1]; 313.15 K): 1260 ± 5.2 m/s
mass density ([1]; 313.15 K): 843.6 ± 2.2 kg/m3
vapor or sublimation pressure ([1]; 410 K): 97.3 ± 4.9 kPa

CCCCCCCCCC [decane]
viscosity ([1]; 303.15 K): 0.786 ± 0.021 mPa·s
speed of sound ([1]; 303.15 K): 1210 ± 5.2 m/s
mass density ([1]; 303.15 K): 722.3 ± 1.9 kg/m3
viscosity ([1]; 308.15 K): 0.717 ± 0.019 mPa·s
speed of sound ([1]; 308.15 K): 1189 ± 5.2 m/s
mass density ([1]; 308.15 K): 718.2 ± 1.9 kg/m3
viscosity ([1]; 313.15 K): 0.694 ± 0.019 mPa·s
speed of sound ([1]; 313.15 K): 1175.3 ± 5.2 m/s
mass density ([1]; 313.15 K): 714.7 ± 1.9 kg/m3
vapor or sublimation pressure ([1]; 445.7 K): 97.3 ± 4.9 kPa

CCCCCCCCCC [decane] + Cc1ccc(C)cc1
viscosity ([2]; 303.15 K): 0.786 ± 0.021 mPa·s
excess molar volume ([2]; 303.15 K): 0 ± 6e-09 m3/mol
speed of sound ([2]; 303.15 K): 1210 ± 5.2 m/s
viscosity ([2]; 308.15 K): 0.717 ± 0.019 mPa·s
excess molar volume ([2]; 308.15 K): 0 ± 6e-09 m3/mol
speed of sound ([2]; 308.15 K): 1189 ± 5.2 m/s
viscosity ([2]; 313.15 K): 0.694 ± 0.019 mPa·s
excess molar volume ([2]; 313.15 K): 0 ± 6e-09 m3/mol
speed of sound ([2]; 313.15 K): 1175.3 ± 5.2 m/s

Reference: the NIST ThermoML archive (doi:10.1021/je0501585)
